Starred links: 1 amine or outer side, 2 acyl side, 3 side chain; linkers in the order of their positions; H or OH if unused. Non-standard residues stand in square brackets, D forms with d. Residues, ends and D or L forms follow the SMILES beside them. Groups on a side chain read outwards from the residue. *: point of attachment. C20 diacid = O=C(O)CCCCCCCCCCCCCCCCCCC(=O)*; C18 diacid = O=C(O)CCCCCCCCCCCCCCCCC(=O)*; γGlu = O=C(O)[C@H](CCC(=O)[*:2])N[*:1]; αMeF = C[C@](N)(Cc1ccccc1)C(=O)O; PEG4 = NCCOCCOCCOCCOCCC(=O)O; PEG2 = NCCOCCOCCC(=O)O; AEEA = NCCOCCOCC(=O)O; Aib = CC(C)(N)C(=O)O
Tests used:
[1] = molecular target: human GLP-1 receptor (hGLP-1R) (Homo sapiens, UniProt P43220); test: cAMP production (HTRF) in CHO cells expressing hGLP-1R; format: cell-based; design: expressed in transfected cells; conditions: for EC50: Table 7, peptides modified at position 20, cAMP in CHO hGLP-1R cells, geometric mean, read-out: hGLP-1R EC50; for % Relative Potency Ratio: Table 7, % GLP-1R activity relative to GLP-1 / % GlucR activity relative to glucagon
Method in brief: (§1)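 Read-out: HTRF cAMP (anti-cAMP cryptate donor, cAMP-d2 acceptor in conjugate/lysis buffer), converted to % Delta F and fitted by 4-parameter logistic for EC50. Cell densities were 1×10^5 cells/mL (hGLP-1R) or 2×10^5 cells/mL (hGCGR). Stimulation lasted 30 min at room temperature.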

[2] = molecular target: human glucagon receptor (hGCGR) (Homo sapiens, UniProt P47871); test: cAMP production (HTRF) in CHO cells expressing hGCGR; format: cell-based; design: expressed in transfected cells; conditions: Table 7, peptides modified at position 20; cAMP in CHO hGCGR cells; geometric mean; read-out: hGluc-R EC50
Method in brief: as §1

Chain of human glucagon receptor (hGCGR) (P47871 26-477): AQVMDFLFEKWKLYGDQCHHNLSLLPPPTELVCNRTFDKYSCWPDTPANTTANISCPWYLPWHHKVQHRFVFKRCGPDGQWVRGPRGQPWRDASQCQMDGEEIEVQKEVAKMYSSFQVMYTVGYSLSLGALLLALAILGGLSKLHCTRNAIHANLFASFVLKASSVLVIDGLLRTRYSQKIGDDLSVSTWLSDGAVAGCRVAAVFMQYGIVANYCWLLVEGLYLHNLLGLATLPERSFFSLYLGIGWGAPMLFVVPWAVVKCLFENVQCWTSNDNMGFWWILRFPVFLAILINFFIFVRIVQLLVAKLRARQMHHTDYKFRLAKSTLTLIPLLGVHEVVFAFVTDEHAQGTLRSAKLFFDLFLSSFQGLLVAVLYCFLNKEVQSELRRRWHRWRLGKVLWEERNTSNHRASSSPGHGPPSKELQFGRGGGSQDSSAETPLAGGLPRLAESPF
Chain of human GLP-1 receptor (hGLP-1R) (P43220 24-463): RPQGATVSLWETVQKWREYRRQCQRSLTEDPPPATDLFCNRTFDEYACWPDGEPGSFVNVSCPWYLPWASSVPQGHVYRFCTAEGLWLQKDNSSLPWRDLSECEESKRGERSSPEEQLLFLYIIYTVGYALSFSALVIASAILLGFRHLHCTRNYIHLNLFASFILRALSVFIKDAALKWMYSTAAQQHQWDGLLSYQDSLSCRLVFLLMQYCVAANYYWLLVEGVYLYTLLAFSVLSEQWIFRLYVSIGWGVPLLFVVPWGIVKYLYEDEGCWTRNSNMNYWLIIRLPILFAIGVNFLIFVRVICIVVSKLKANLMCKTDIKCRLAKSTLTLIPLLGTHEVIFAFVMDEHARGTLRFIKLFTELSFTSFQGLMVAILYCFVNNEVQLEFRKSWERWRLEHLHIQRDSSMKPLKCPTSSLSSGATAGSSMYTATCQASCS

| EC50 [1] [nM] | % Relative Potency Ratio [1] | EC50 [2] [nM] | SMILES |
| --- | --- | --- | --- |
| 0.034 | 5.4 | 0.0931 | CC[C@H](C)[C@H](NC(=O)C(C)(C)NC(=O)[C@H](CCC(N)=O)NC(=O)[C@@H](NC(=O)[C@](C)(Cc1ccccc1)NC(=O)[C@H](CC(=O)O)NC(=O)[C@H](CCCCNC(=O)CCOCCOCCNC(=O)CCOCCOCCNC(=O)CC[C@H](NC(=O)CC[C@H](NC(=O)CCCCCCCCCCCCCCCCC(=O)O)C(=O)O)C(=O)O)NC(=O)[C@H](C)NC(=O)[C@H](C)NC(=O)[C@H](CCCNC(=N)N)NC(=O)[C@H](CO)NC(=O)[C@H](CC(=O)O)NC(=O)[C@H](CC(C)C)NC(=O)[C@](C)(Cc1ccccc1)NC(=O)[C@H](CCCCN)NC(=O)[C@H](CO)NC(=O)[C@@H](NC(=O)[C@H](CC(=O)O)NC(=O)[C@H](CO)NC(=O)[C@@H](NC(=O)[C@](C)(Cc1ccccc1)NC(=O)[C@H](CO)NC(=O)CNC(=O)[C@H](Cc1c[nH]cn1)NC(=O)C(C)(C)NC(=O)[C@@H](N)Cc1c[nH]cn1)[C@@H](C)O)C(C)C)C(C)C)C(=O)N[C@@H](C)C(=O)N[C@@H](CC(N)=O)C(=O)N[C@H](C(N)=O)[C@@H](C)O [Peptide 258] (H-H[Aib]HGS[αMeF]TSDVSK[αMeF]LDSRAAK([PEG2-PEG2-γGlu-γGlu-C18 diacid])D[αMeF]VQ[Aib]IANT-NH2; N-terminus assumed) |
| 0.0331 | 4.6 | 0.0769 | CC[C@H](C)[C@H](NC(=O)C(C)(C)NC(=O)[C@H](CCC(N)=O)NC(=O)[C@@H](NC(=O)[C@](C)(Cc1ccccc1)NC(=O)[C@H](CC(=O)O)NC(=O)[C@H](CCCCNC(=O)COCCOCCNC(=O)CC[C@H](NC(=O)COCCOCCNC(=O)CC[C@H](NC(=O)CCCCCCCCCCCCCCCCC(=O)O)C(=O)O)C(=O)O)NC(=O)[C@H](C)NC(=O)[C@H](C)NC(=O)[C@H](CCCNC(=N)N)NC(=O)[C@H](CO)NC(=O)[C@H](CC(=O)O)NC(=O)[C@H](CC(C)C)NC(=O)[C@](C)(Cc1ccccc1)NC(=O)[C@H](CCCCN)NC(=O)[C@H](CO)NC(=O)[C@@H](NC(=O)[C@H](CC(=O)O)NC(=O)[C@H](CO)NC(=O)[C@@H](NC(=O)[C@](C)(Cc1ccccc1)NC(=O)[C@H](CO)NC(=O)CNC(=O)[C@H](Cc1c[nH]cn1)NC(=O)C(C)(C)NC(=O)[C@@H](N)Cc1c[nH]cn1)[C@@H](C)O)C(C)C)C(C)C)C(=O)N[C@@H](C)C(=O)N[C@@H](CC(N)=O)C(=O)N[C@H](C(N)=O)[C@@H](C)O [Peptide 260] (H-H[Aib]HGS[αMeF]TSDVSK[αMeF]LDSRAAK([AEEA-γGlu-AEEA-γGlu-C18 diacid])D[αMeF]VQ[Aib]IANT-NH2) |
| 0.0254 |  | 0.0646 | CC[C@H](C)[C@H](NC(=O)C(C)(C)NC(=O)[C@H](CCC(N)=O)NC(=O)[C@@H](NC(=O)[C@](C)(Cc1ccccc1)NC(=O)[C@H](CC(=O)O)NC(=O)[C@H](CCCCNC(=O)CCOCCOCCOCCOCCNC(=O)CC[C@H](NC(=O)CC[C@H](NC(=O)CCCCCCCCCCCCCCCCC(=O)O)C(=O)O)C(=O)O)NC(=O)[C@H](C)NC(=O)[C@H](C)NC(=O)[C@H](CCCNC(=N)N)NC(=O)[C@H](CO)NC(=O)[C@H](CC(=O)O)NC(=O)[C@H](CC(C)C)NC(=O)[C@](C)(Cc1ccccc1)NC(=O)[C@H](CCCCN)NC(=O)[C@H](CO)NC(=O)[C@@H](NC(=O)[C@H](CC(=O)O)NC(=O)[C@H](CO)NC(=O)[C@@H](NC(=O)[C@](C)(Cc1ccccc1)NC(=O)[C@H](CO)NC(=O)CNC(=O)[C@H](Cc1c[nH]cn1)NC(=O)C(C)(C)NC(=O)[C@@H](N)Cc1c[nH]cn1)[C@@H](C)O)C(C)C)C(C)C)C(=O)N[C@@H](C)C(=O)N[C@@H](CC(N)=O)C(=O)N[C@H](C(N)=O)[C@@H](C)O [Peptide 263] (H-H[Aib]HGS[αMeF]TSDVSK[αMeF]LDSRAAK([PEG4-γGlu-γGlu-C18 diacid])D[αMeF]VQ[Aib]IANT-NH2) |
| 0.0695 | 8.5 | 0.297 | CC[C@H](C)[C@H](NC(=O)C(C)(C)NC(=O)[C@H](CCC(N)=O)NC(=O)[C@@H](NC(=O)[C@](C)(Cc1ccccc1)NC(=O)[C@H](CC(=O)O)NC(=O)[C@H](CCCCNC(=O)CCOCCOCCNC(=O)CCOCCOCCNC(=O)CC[C@H](NC(=O)CC[C@H](NC(=O)CCCCCCCCCCCCCCCCCCC(=O)O)C(=O)O)C(=O)O)NC(=O)[C@H](C)NC(=O)[C@H](C)NC(=O)[C@H](CCCNC(=N)N)NC(=O)[C@H](CO)NC(=O)[C@H](CC(=O)O)NC(=O)[C@H](CC(C)C)NC(=O)[C@](C)(Cc1ccccc1)NC(=O)[C@H](CCCCN)NC(=O)[C@H](CO)NC(=O)[C@@H](NC(=O)[C@H](CC(=O)O)NC(=O)[C@H](CO)NC(=O)[C@@H](NC(=O)[C@](C)(Cc1ccccc1)NC(=O)[C@H](CO)NC(=O)CNC(=O)[C@H](Cc1c[nH]cn1)NC(=O)C(C)(C)NC(=O)[C@@H](N)Cc1c[nH]cn1)[C@@H](C)O)C(C)C)C(C)C)C(=O)N[C@@H](C)C(=O)N[C@@H](CC(N)=O)C(=O)N[C@H](C(N)=O)[C@@H](C)O [Peptide 264] (H-H[Aib]HGS[αMeF]TSDVSK[αMeF]LDSRAAK([PEG2-PEG2-γGlu-γGlu-C20 diacid])D[αMeF]VQ[Aib]IANT-NH2) |

The next lines start with the compound.

| SMILES | EC50 [1] [nM] | % Relative Potency Ratio [1] | EC50 [2] [nM] |
| --- | --- | --- | --- |
| CC[C@H](C)[C@H](NC(=O)C(C)(C)NC(=O)[C@H](CCC(N)=O)NC(=O)[C@@H](NC(=O)[C@](C)(Cc1ccccc1)NC(=O)[C@H](CC(=O)O)NC(=O)[C@H](CCCCNC(=O)COCCOCCNC(=O)COCCOCCNC(=O)CC[C@H](NC(=O)CC[C@H](NC(=O)CCCCCCCCCCCCCCCCCCC(=O)O)C(=O)O)C(=O)O)NC(=O)[C@H](C)NC(=O)[C@H](C)NC(=O)[C@H](CCC(N)=O)NC(=O)[C@H](CO)NC(=O)[C@H](CC(=O)O)NC(=O)[C@H](CC(C)C)NC(=O)[C@](C)(Cc1ccccc1)NC(=O)[C@H](CCCCN)NC(=O)[C@H](CO)NC(=O)[C@@H](NC(=O)[C@H](CC(=O)O)NC(=O)[C@H](CO)NC(=O)[C@@H](NC(=O)[C@](C)(Cc1ccccc1)NC(=O)[C@H](CO)NC(=O)CNC(=O)[C@H](Cc1c[nH]cn1)NC(=O)C(C)(C)NC(=O)[C@@H](N)Cc1c[nH]cn1)[C@@H](C)O)C(C)C)C(C)C)C(=O)N[C@@H](C)C(=O)N[C@@H](CC(N)=O)C(=O)N[C@H](C(N)=O)[C@@H](C)O [Peptide 256] (H-H[Aib]HGS[αMeF]TSDVSK[αMeF]LDSQAAK([AEEA-AEEA-γGlu-γGlu-C20 diacid])D[αMeF]VQ[Aib]IANT-NH2) | 0.346 | 7.5 | 1.31 |
| CC[C@H](C)[C@H](NC(=O)C(C)(C)NC(=O)[C@H](CCC(N)=O)NC(=O)[C@@H](NC(=O)[C@](C)(Cc1ccccc1)NC(=O)[C@H](CC(=O)O)NC(=O)[C@H](CCCCNC(=O)COCCOCCNC(=O)CC[C@H](NC(=O)COCCOCCNC(=O)CCCCCCCCCCCCCCCCC(=O)O)C(=O)O)NC(=O)[C@H](C)NC(=O)[C@H](C)NC(=O)[C@H](CCCNC(=N)N)NC(=O)[C@H](CO)NC(=O)[C@H](CC(=O)O)NC(=O)[C@H](CC(C)C)NC(=O)[C@](C)(Cc1ccccc1)NC(=O)[C@H](CCCCN)NC(=O)[C@H](CO)NC(=O)[C@@H](NC(=O)[C@H](CC(=O)O)NC(=O)[C@H](CO)NC(=O)[C@@H](NC(=O)[C@](C)(Cc1ccccc1)NC(=O)[C@H](CO)NC(=O)CNC(=O)[C@H](Cc1c[nH]cn1)NC(=O)C(C)(C)NC(=O)[C@@H](N)Cc1c[nH]cn1)[C@@H](C)O)C(C)C)C(C)C)C(=O)N[C@@H](C)C(=O)N[C@@H](CC(N)=O)C(=O)N[C@H](C(N)=O)[C@@H](C)O [Peptide 259] (H-H[Aib]HGS[αMeF]TSDVSK[αMeF]LDSRAAK([AEEA-γGlu-AEEA-C18 diacid])D[αMeF]VQ[Aib]IANT-NH2) | 0.0191 | 3.6 | 0.0348 |
| CC[C@H](C)[C@H](NC(=O)C(C)(C)NC(=O)[C@H](CCC(N)=O)NC(=O)[C@@H](NC(=O)[C@](C)(Cc1ccccc1)NC(=O)[C@H](CC(=O)O)NC(=O)[C@H](CCCCNC(=O)CCOCCOCCOCCOCCNC(=O)CC[C@H](NC(=O)CCCCCCCCCCCCCCCCC(=O)O)C(=O)O)NC(=O)[C@H](C)NC(=O)[C@H](C)NC(=O)[C@H](CCCNC(=N)N)NC(=O)[C@H](CO)NC(=O)[C@H](CC(=O)O)NC(=O)[C@H](CC(C)C)NC(=O)[C@](C)(Cc1ccccc1)NC(=O)[C@H](CCCCN)NC(=O)[C@H](CO)NC(=O)[C@@H](NC(=O)[C@H](CC(=O)O)NC(=O)[C@H](CO)NC(=O)[C@@H](NC(=O)[C@](C)(Cc1ccccc1)NC(=O)[C@H](CO)NC(=O)CNC(=O)[C@H](Cc1c[nH]cn1)NC(=O)C(C)(C)NC(=O)[C@@H](N)Cc1c[nH]cn1)[C@@H](C)O)C(C)C)C(C)C)C(=O)N[C@@H](C)C(=O)N[C@@H](CC(N)=O)C(=O)N[C@H](C(N)=O)[C@@H](C)O [Peptide 261] (H-H[Aib]HGS[αMeF]TSDVSK[αMeF]LDSRAAK([PEG4-γGlu-C18 diacid])D[αMeF]VQ[Aib]IANT-NH2; N-terminus assumed) | 0.0162 | 3.6 | 0.0294 |
| CC[C@H](C)[C@H](NC(=O)C(C)(C)NC(=O)[C@H](CCC(N)=O)NC(=O)[C@@H](NC(=O)[C@](C)(Cc1ccccc1)NC(=O)[C@H](CC(=O)O)NC(=O)[C@H](CCCCNC(=O)COCCOCCNC(=O)CC[C@H](NC(=O)CCCCCCCCCCCCCCCCC(=O)O)C(=O)O)NC(=O)[C@H](C)NC(=O)[C@H](C)NC(=O)[C@H](CCCNC(=N)N)NC(=O)[C@H](CO)NC(=O)[C@H](CC(=O)O)NC(=O)[C@H](CC(C)C)NC(=O)[C@](C)(Cc1ccccc1)NC(=O)[C@H](CCCCN)NC(=O)[C@H](CO)NC(=O)[C@@H](NC(=O)[C@H](CC(=O)O)NC(=O)[C@H](CO)NC(=O)[C@@H](NC(=O)[C@](C)(Cc1ccccc1)NC(=O)[C@H](CO)NC(=O)CNC(=O)[C@H](Cc1c[nH]cn1)NC(=O)C(C)(C)NC(=O)[C@@H](N)Cc1c[nH]cn1)[C@@H](C)O)C(C)C)C(C)C)C(=O)N[C@@H](C)C(=O)N[C@@H](CC(N)=O)C(=O)N[C@H](C(N)=O)[C@@H](C)O [Peptide 262] (H-H[Aib]HGS[αMeF]TSDVSK[αMeF]LDSRAAK([AEEA-γGlu-C18 diacid])D[αMeF]VQ[Aib]IANT-NH2) | 0.013 | 1.8 | 0.0117 |

Reference: patent publication US20250353891A1 (MEDIMMUNE LIMITED, priority 2022, published 2025)
